System: Rh41
Experiment: Antiproliferative activity against human Rh41 cells assessed as inhibition of cell growth incubated for 72 hrs by 3H-thymidine incorporation assay
Format: functional, cell-based

Question: `Cc1cc(Nc2cc(N3CCN(C)CC3)nc(Sc3ccc(NC(=O)C4CC4)cc3)n2)n[nH]1` [TOZASERTIB] was tested. Which IC50 did it give?
Answer: 93 nM

Reference: ChEMBL document CHEMBL5678800 (Mol Cancer Ther, 2009)
